{
  "source": "paper PMC7456637",
  "about": "“Pharmacokinetic characterization of fluorocoxib D, a cyclooxygenase-2-targeted optical imaging agent for detection of cancer” (Journal of Biomedical Optics, 2020)",
  "origin": "cited, not measured here",
  "key": {"COX1": {"system": "COX1", "conditions": "cited from earlier work"}, "COX2": {"system": "COX2", "conditions": "cited from earlier work"}, "RAW264.7 macrophages": {"system": "RAW264.7 macrophages", "parameters": "method as in PMID 20430759", "conditions": "cited from earlier work"}, "[1]": {"conditions": "administrated orally; cited from earlier work"}, "[2]": {"conditions": "dog, in vivo, po, 2 mg/kg; cited from earlier work"}},
  "data": [
    {"compound": "COc1ccc2c(c1)c(CC(=O)O)c(C)n2C(=O)c1ccc(Cl)cc1", "note": "[Indomethacin, reference compound]", "values": [
      {"measurement": "IC50", "setting": "COX1", "value": "[…]"},
      {"measurement": "IC50", "setting": "COX2", "value": "[…]"},
      {"measurement": "IC50", "setting": "RAW264.7 macrophages", "value": 10, "unit": "nM"},
      {"measurement": "Bioavailability", "setting": "[1]", "value": 100, "unit": "%"}
    ]},
    {"compound": "CCc1ccc(Nc2c(F)c(F)cc(F)c2F)c(CC(=O)O)c1", "note": "[robenacoxib]", "values": [
      {"measurement": "Elimination t1/2", "setting": "[2]", "value": 1.1, "unit": "h"}
    ]}
  ]
}
